For one experiment, the system named is Plasmodium berghei. The experiment can be described thus: Antimalarial activity against Plasmodium berghei infected mouse assessed as suppression of parasitemia administered through diet for 6 days. It is filed as functional.
For `Nc1nc(N)c2c(Cl)c(NCc3ccc(Cl)c(Cl)c3)ccc2n1`, the “log(1/SD90)” value came out at 5.72. Consider `Nc1nc(N)c2cc(NCCc3ccc(Cl)cc3)ccc2n1`, for which the “log(1/SD90)” value amounted to 4.24.

With `Nc1nc(N)c2cc(NCc3cccs3)ccc2n1`, the “log(1/SD90)” value was 3.82. `CCCN(Cc1ccc(Cl)cc1)c1ccc2nc(N)nc(N)c2c1`: the “log(1/SD90)” value was found to be 6.3.

In the case of `CC(Nc1ccc2nc(N)nc(N)c2c1)c1ccc(Cl)c(Cl)c1` (configuration not stated), the “log(1/SD90)” value is on record as 4.6.

Consider `CN(Cc1ccc(Cl)c(Cl)c1)c1ccc2nc(N)nc(N)c2c1`, for which the “log(1/SD90)” value was determined as 6.34. In the case of `Nc1nc(N)c2cc(NCc3ccc4ccccc4c3Cl)ccc2n1`, the “log(1/SD90)” value amounted to 4.59. Still for that read-out and setting: for `COc1cccc(CNc2ccc3nc(N)nc(N)c3c2)c1` the value was 4.15. On the same count and under the same terms, for `CCN(Cc1cccc2ccccc12)c1ccc2nc(N)nc(N)c2c1` the value was 5.97; for `Nc1nc(N)c2cc(NCc3ccccc3N)ccc2n1`, 3.07. Same read-out and setting: for `CCN(Cc1ccc(Cl)cc1)c1ccc2nc(N)nc(N)c2c1` the value was 6.4. With `CCCN(Cc1ccc(Cl)c(Cl)c1)c1ccc2nc(N)nc(N)c2c1C`, the “log(1/SD90)” value turned out to be 5.36. As to `Nc1nc(N)c2cc(NCc3cccc(Br)c3)ccc2n1`, the “log(1/SD90)” value is recorded as 5.93. Turning to `CCCCN(Cc1ccc(Cl)c(Cl)c1)c1ccc2nc(N)nc(N)c2c1`, the “log(1/SD90)” value amounted to 5.06.

Take `CN(C)c1nc(N)c2cc(NCc3ccccc3)ccc2n1`: the “log(1/SD90)” value was 3.75.

With `Nc1nc(N)c2cc(NCc3ccccc3[N+](=O)[O-])ccc2n1`, the “log(1/SD90)” value turned out to be 3.26. Same read-out and setting: for `CCN(CC)c1nc(N(CC)CC)c2cc(NCc3ccc(Cl)c(Cl)c3)ccc2n1` the value was 3.31; for `CCN(Cc1ccc(Cl)c(Cl)c1)c1ccc2nc(N)nc(N)c2c1C`, 5.2; for `CCCN(Cc1ccc(Cl)c(Cl)c1)c1ccc2nc(N)nc(N)c2c1`, 6.1.

On to `CC(c1ccc(Cl)c(Cl)c1)N(C)c1ccc2nc(N)nc(N)c2c1` (configuration not stated), for which the “log(1/SD90)” value is 5.6. On the same count and under the same terms, for `Nc1nc(N)c2cc(NCc3ccc(Cl)s3)ccc2n1` the value was 4.49; for `Cc1c(NCc2ccccc2)ccc2nc(N)nc(N)c12`, 5.33; for `CC(C)N(Cc1ccc(Cl)cc1)c1ccc2nc(N)nc(N)c2c1`, 6.76. Turning to `Nc1nc(N)c2cc(N(Cc3ccc(Cl)c(Cl)c3)N=O)cnc2n1`, the “log(1/SD90)” value was 4.48.

On to `CCN(Cc1ccc(Cl)c(Cl)c1)c1ccc2nc(N)nc(N)c2c1`, for which the “log(1/SD90)” value stood at 6.

Regarding `CN(Cc1ccccc1)c1ccc2nc(N)nc(N)c2c1`, the “log(1/SD90)” value amounted to 6.15. Same read-out and setting: for `Cc1c(NCc2ccc(Cl)c(Cl)c2)ccc2nc(N)nc(N)c12` the value was 4.83. Still for that read-out and setting: for `CN(C)c1nc(N(C)C)c2cc(NCc3ccc(Cl)c(Cl)c3)ccc2n1` the value was 4.21. Still for that read-out and setting: for `CCCCCCCCN(Cc1ccc(Cl)cc1)c1ccc2nc(N)nc(N)c2c1` the value was 4.08; for `CCCCNc1nc(NCCCC)c2cc(NCc3ccc(Cl)c(Cl)c3)ccc2n1`, 3.47.

For a further experiment, the system named is Plasmodium berghei. In words: Antimalarial activity against Plasmodium berghei infected in po dosed mouse assessed as suppression of parasitemia. The experiment is classed as functional.
For the compound `Nc1nc(N)c2c(n1)CCN(Cc1ccc(Cl)c(Cl)c1)C2`, the “log(1/SD90)” value turned out to be 4.92.

`Nc1nc(N)c2c(n1)CCN(Cc1ccccc1Cl)C2`: the “log(1/SD90)” value stood at 3.73. The same measure, in the same setting: for `Nc1nc(N)c2c(n1)CCN(Cc1ccccc1)C2` the value was 3.65. For the compound `Nc1nc(N)c2c(n1)CCN(Cc1ccncc1)C2`, the “log(1/SD90)” value was 3.31. The same measure, in the same setting: for `Nc1nc(N)c2cc(CNc3ccc(Cl)c(Cl)c3)ccc2n1` the value was 5.56; for `Cc1c(N(C=O)Cc2ccc(Cl)c(Cl)c2)ccc2nc(N)nc(N)c12`, 5.69. Regarding `Cc1c(CNc2ccc(Cl)c(Cl)c2)ccc2nc(N)nc(N)c12`, the “log(1/SD90)” value worked out at 6.02. Same read-out and setting: for `Nc1nc(N)c2c(n1)CCN(Cc1ccc(Cl)cc1)C2` the value was 4.14.

For the compound `Cc1c(CN(N=O)c2ccc(Cl)c(Cl)c2)ccc2nc(N)nc(N)c12`, the “log(1/SD90)” value is listed as 5.52. Regarding `Nc1nc(N)c2cc(-n3cccc3)ccc2n1`, the “log(1/SD90)” value came out at 4.29. The same measure, in the same setting: for `Nc1nc(N)c2c(n1)CCN(Cc1cccnc1)C2` the value was 3.88; for `Nc1nc(N)c2cc(CN(N=O)c3ccc(Cl)c(Cl)c3)ccc2n1`, 6.16.

Another experiment deals with T1, Dihydrofolate reductase (Enterococcus faecium) (UniProt P00380).
T1 sequence (whole entry): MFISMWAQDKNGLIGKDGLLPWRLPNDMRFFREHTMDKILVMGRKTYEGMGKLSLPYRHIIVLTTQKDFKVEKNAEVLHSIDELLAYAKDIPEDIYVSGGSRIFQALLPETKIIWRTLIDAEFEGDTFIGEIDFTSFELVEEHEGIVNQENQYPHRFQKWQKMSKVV
Description: Inhibition of Streptococcus faecium dihydrofolate reductase using dihydrofolate as substrate
As for `Nc1ncnc2ccc([S+]([O-])c3ccc4ccccc4c3)cc12` (configuration not stated), the log(1/I50) turned out to be 4.58.

`CCOC(=O)c1ccc(CNc2ccc3nc(N)nc(N)c3c2C)cc1` had a log(1/I50) of 8.85. The same measure, in the same setting: for `O=c1[nH]c(=S)c2cc(Sc3ccc4ccccc4c3)ccc2[nH]1` the value was 4.24; for `Nc1nc(O)c2c(S(=O)(=O)c3ccc4ccccc4c3)cccc2n1`, 5.85; for `Nc1nc(N)c2c(CCc3ccc4ccccc4c3)cccc2n1`, 8. In turn, `CCOC(=O)c1ccc(CNc2ccc3nc(N)nc(O)c3c2C)cc1` gave a log(1/I50) of 4.52. Still for that read-out and setting: for `Sc1nc(S)c2cc(Sc3ccc4ccccc4c3)ccc2n1` the value was 3.65. Same read-out and setting: for `Cc1c(CNc2ccc(C(=O)O)cc2)ccc2nc(N)nc(N)c12` the value was 7.96. `Nc1nc(N)c2cc(Sc3cccc(C(F)(F)F)c3)ccc2n1` gave a log(1/I50) of 9.15.

As for `Nc1ncnc2ccc(Sc3ccc4ccccc4c3)cc12`, the log(1/I50) came out at 4.07. Same read-out and setting: for `Nc1nc(N)c2c(Sc3ccc(Cl)c(Cl)c3)cccc2n1` the value was 6.54; for `Nc1nc(O)c2cc(Sc3ccc(Cl)c(Cl)c3)ccc2n1`, 5.92; for `Nc1nc(N)c2c(Sc3ccc4ccccc4c3)cccc2n1`, 7.25.

In the case of `CCOC(=O)c1ccc(NCc2ccc3nc(N)nc(N)c3c2C)cc1`, the log(1/I50) stood at 8.29.

In turn, `Nc1nc(S)c2cc(S(=O)(=O)c3ccc4ccccc4c3)ccc2n1` showed a log(1/I50) of 5.17. Still for that read-out and setting: for `Nc1ncnc2ccc(S(=O)(=O)c3ccc4ccccc4c3)cc12` the value was 3.51; for `Nc1nc(N)c2cc(Sc3ccc(Cl)c(Cl)c3)ccc2n1`, 8.24.

As to `Nc1nc(N)c2c([S+]([O-])c3ccc4ccccc4c3)cccc2n1` (configuration not stated), the log(1/I50) was found to be 4.36. In the case of `CCCCOC(=O)c1ccc(NCc2ccc3nc(N)nc(N)c3c2Cl)cc1`, the log(1/I50) was found to be 7.68. `Nc1nc(S)nc2ccc(Sc3ccc4ccccc4c3)cc12` returned a log(1/I50) of 4.69.

As to `CCOC(=O)c1ccc(CNc2ccc3nc(N)nc(O)c3c2)cc1`, the log(1/I50) was 4.55. In turn, `CCOC(=O)c1ccc(NCc2ccc3nc(N)nc(N)c3c2)cc1` showed a log(1/I50) of 7.68.

`Nc1nc(O)c2cc([S+]([O-])c3ccc4ccccc4c3)ccc2n1` (configuration not stated) came in with a log(1/I50) of 5.28. Take `Nc1nc(O)nc2ccc(Sc3ccc4ccccc4c3)cc12`: the log(1/I50) is 4.34. Same read-out and setting: for `Oc1nc(S)nc2ccc(Sc3ccc4ccccc4c3)cc12` the value was 3.85; for `O=c1[nH]c(=O)c2cc(Sc3ccc4ccccc4c3)ccc2[nH]1`, 4.32; for `Nc1nc(O)c2c(Sc3ccc4ccccc4c3)cccc2n1`, 4.68. The compound `Nc1nc(N)c2c(S(=O)(=O)c3ccc(Cl)c(Cl)c3)cccc2n1` came in with a log(1/I50) of 5.85. On to `CCOC(=O)c1ccc(NCc2ccc3nc(N)nc(N)c3c2Cl)cc1`, for which the log(1/I50) came to 8.64. Regarding `CCOC(=O)CCC(NC(=O)c1ccc(NCc2ccc3nc(N)nc(N)c3c2)cc1)C(=O)OCC` (configuration not stated), the log(1/I50) was 7.7. Same read-out and setting: for `CCCCOC(=O)c1ccc(NCc2ccc3nc(N)nc(N)c3c2)cc1` the value was 7.52; for `CCCCOC(=O)c1ccc(NCc2ccc3nc(N)nc(N)c3c2C)cc1`, 8.15; for `CCOC(=O)c1ccc(CNc2ccc3nc(N)nc(O)c3c2Cl)cc1`, 6.09. Consider `CCOC(=O)c1ccc(CNc2ccc3nc(N)nc(N)c3c2)cc1`, for which the log(1/I50) was found to be 7.34. `Nc1nc(O)c2cc(CN(C=O)c3ccc(C(=O)NC(CCC(=O)O)C(=O)O)cc3)ccc2n1` (configuration not stated) displayed a log(1/I50) of 6.52. Same read-out and setting: for `Nc1nc(N)c2cc(S(=O)(=O)c3ccc(Cl)c(Cl)c3)ccc2n1` the value was 9.15; for `Nc1nc(N)c2cc(S(=O)(=O)c3ccc4ccccc4c3)ccc2n1`, 8.4; for `Nc1nc(N)c2c(CSc3ccc4ccccc4c3)cccc2n1`, 7.55.

Consider `Cc1c(CNc2ccc(C(=O)NC(CC(=O)O)C(=O)O)cc2)ccc2nc(N)nc(N)c12` (configuration not stated), for which the log(1/I50) was determined as 8.6.

With `Nc1nc(N)c2cc(CN(C=O)c3ccc(C(=O)NC(CCC(=O)O)C(=O)O)cc3)ccc2n1` (configuration not stated), the log(1/I50) was found to be 9.

The compound `CCOC(=O)c1ccc(CNc2ccc3nc(N)nc(N)c3c2Cl)cc1` showed a log(1/I50) of 8.2.

`Nc1nc(N)c2cc([S+]([O-])c3ccc4ccccc4c3)ccc2n1` (configuration not stated) displayed a log(1/I50) of 8.7. `Nc1nc(N)c2c(/C=C/c3ccc4ccccc4c3)cccc2n1`: the log(1/I50) was 7.12. Same read-out and setting: for `Nc1nc(O)c2cc(S(=O)(=O)c3ccc4ccccc4c3)ccc2n1` the value was 6.3. Still for that read-out and setting: for `Nc1nc(S)c2cc(Sc3ccc4ccccc4c3)ccc2n1` the value was 6.1; for `Nc1nc(N)c2c(Cl)c(CNc3ccc(C(=O)O)cc3)ccc2n1`, 8.27. For the compound `Nc1nc(N)c2cc(CNc3ccc(C(=O)O)cc3)ccc2n1`, the log(1/I50) stood at 8.8. The same measure, in the same setting: for `Nc1nc(N)c2c(/C=C\c3ccc4ccccc4c3)cccc2n1` the value was 7.43; for `Nc1nc(O)c2cc(Sc3ccc4ccccc4c3)ccc2n1`, 6.74.

For the compound `Nc1nc(N)c2c(S(=O)(=O)c3ccc4ccccc4c3)cccc2n1`, the log(1/I50) turned out to be 4.05.

On to `Nc1nc(O)c2cc(CNc3ccc(C(=O)O)cc3)ccc2n1`, for which the log(1/I50) is 5.74. `Nc1nc(O)c2cc(S(=O)(=O)c3ccc(Cl)c(Cl)c3)ccc2n1` returned a log(1/I50) of 5.3. `Nc1nc(N)c2c([S+]([O-])c3ccc(Cl)c(Cl)c3)cccc2n1` (configuration not stated) showed a log(1/I50) of 4.65.

In turn, `CCOC(=O)c1ccc(NCc2ccc3nc(N)nc(O)c3c2)cc1` returned a log(1/I50) of 7.07. In turn, `Nc1nc(N)c2c(CSc3ccc(Cl)cc3)cccc2n1` came in with a log(1/I50) of 7.24.

The values are drawn from ChEMBL document CHEMBL3272349, “Quantitative structure-activity relationships of antimalarial and dihydrofolate reductase inhibition by quinazolines and 5-substituted benzyl-2,4-diaminopyrimidines” (J Med Chem, 1977).
